Experimental data reported in patent publication US20250057791A1, “PROTECTION AGAINST ARTHROPOD PARASITES WITH PURINERGIC RECEPTOR (OPR) ANTAGONISTS” (priority 2021, published 2025).

How the values were obtained:
Ixodes ricinus = assay: Glass capillary feeding of partly fed female ticks, Ixodes ricinus; format: in vivo; details: for Fluid intake, Median (mg): females, glass capillary
Text: (§1) I. ricinus adults were prefed for 3-4 days and A. hebraeum adults for 10 days on a membrane over bovine blood (Kröber T. and Guerin P. M., 2007, supra). Partly fed I. ricinus and A. hebraeum, freshly detached from the membrane, were tightly fixed by the scutum and alloscutum to double-sided adhesive tape (Tesafix® 4964, Beiersdorf, Hamburg, Germany) on a glass slide and secured with plasticine. Test compounds were fed to these partly-fed female ticks using borosilicate capillary tubes (Clark GC120-10, 0.69 mm i.d., 1.2 mm o.d., 50 mm long; Clark Electromedical Instruments, Pangbourne, Reading, UK) with drawn out tips adapted to fit around the mouthparts of individual ticks. Feeding capillaries were filled with a solution of 100 mM NaCl, 8.9 mM NaHCO3 with 1000 μM ATP added, hereafter termed tick feeding solution (TFS) that served as positive control in each feeding experiment. PR antagonists were added to the TFS and pH of the solution was adjusted to 7.2-7.8. Capillary-fed ticks were kept in a plastic box on a warm plate at 34° C. and 80% RH using wet paper. After 1 h, the amount of solution imbibed by a tick was indicated by the drop of the meniscus in the capillary and measured using Vernier callipers and converted to mg.
Uptake of TFS containing PR antagonists, converted to mg/h for hard ticks and weight gains in mg/25 min for soft ticks, was compared to TFS uptake in the corresponding positive controls. […] For tsetse and horn flies the percentage flies that fed per antagonist treatment served as the criterion for inhibition of feeding. As horn fly sexes emerged within 24 h, both sexes were assumed to show the same degree of appetence. In tsetse, males emerged first so a gender-related appetence could not be excluded. No sex-related feeding differences in feeding were found for testse (GLM, P>0.05) so data for the sexes were pooled. Comparisons of percentage fed flies were made using a Bayesian GLM—the most appropriate model considering the zero-inflated distributions shown by the data sets. […]

Amblyomma hebraeum = assay: Glass capillary feeding of partly fed female ticks, Amblyomma hebraeum; format: in vivo; details: females
Text: as §1, with “mg. […]” for “mg.”

Ornithodorus moubata = assay: Silicone membrane feeding of N3, N4 nymphs, Ornithodorus moubata; format: in vivo; details: for effect on feeding, compound in solution containing ATP, in words: doses as in Table 9
Procedure: O. moubata nymphs were fed for 25 min through a membrane (50-75 μm thick) as for hard ticks in glass feeding unit on TFS containing 1000 μM ATP as positive control in each feeding experiment. PR antagonists were added to the TFS as for hard ticks. One compound, TMP was applied onto the membrane in aqueous solution (8 μg TMP in 70 μl) in small drops using a micropipette. Individual nymphs were marked on the dorsum with nail varnish in distinguishable colours and weighed before and after the experiment.
Uptake of TFS containing PR antagonists, converted to mg/h for hard ticks and weight gains in mg/25 min for soft ticks, was compared to TFS uptake in the corresponding positive controls. […] For tsetse and horn flies the percentage flies that fed per antagonist treatment served as the criterion for inhibition of feeding. As horn fly sexes emerged within 24 h, both sexes were assumed to show the same degree of appetence. In tsetse, males emerged first so a gender-related appetence could not be excluded. No sex-related feeding differences in feeding were found for testse (GLM, P>0.05) so data for the sexes were pooled. Comparisons of percentage fed flies were made using a Bayesian GLM—the most appropriate model considering the zero-inflated distributions shown by the data sets. […] P-values were corrected using Holm's FWEC in multiple comparisons of data for each tick and fly species.

[1] = biological target: Vertebrate P2X3 and P2X2/3 PRs; details: cited from earlier work
[2] = system: A. gambiae labellum sensilla (purine-sensitive cell); assay: Tip recording of action potentials from A. gambiae labellum sensilla in response to agonists; format: cell-based, Anopheles gambiae
Procedure: The tip recording method was used to record action potentials (spikes) from sensory cells in sensilla on A. gambiae labellum lobes.
Sensilla were exposed to test compounds and PR antagonists for ca. 2-4 s and spikes were counted in the first 2 s of recordings. Up to 4 test compounds were tested on a sensillum to evaluate potential agonists, each presented at 200 pM. To study responses as a function of dose for agonists ATP, adenosine, AMP, AMP-CPP and ATP+adenosine, up to 7 recordings were made at increasing doses of agonist from the same sensillum. Unless otherwise stated, recordings were made throughout from 4 to 16 sensilla from individual 4-6-day-old females per dose of agonist, antagonist and metal ion modulator. For example, a response curve established over 6 doses of an antagonist using 8 sensilla per dose involved recording from a sensillum of 48 separate mosquitoes. A given dose of a PR antagonist or metal ion modulator was only presented once to a sensillum. Two-second recordings were imported as ASCII files into DataView software for analysis of spike amplitude. Differences in spike amplitude generated by stimulation of one 8v sensillum/female with 1 mM sucrose (n=294 spikes from 6 females) 200 pM adenosine (n=207 spikes from 7 females) and 200 pM ATP (n=192 spikes from 7 females) were compared by measuring the spike amplitude in mV between the highest point of depolarisation and the lowest point of hyperpolarisation.
Spike counts elicited by 200 pM doses of nucleotides, nucleosides, purines, pyrimidines and water were log(x+1.25)-transformed (optimal constant numerically established using a maximum likelihood procedure) and analysed using a linear mixed effects model (function ‘lme’ in “nlme” R package) with mosquito number as random effect. To model inhomogeneous variance in residuals (near normal distribution, P=0.045, Shapiro-Wilk test, W=0.98604), the variance function ‘varldent’ in the “nlme” package that allows for different variance per treatment was used. Statistical differences were identified between treatments using post-hoc-Tukey test with contrasts adjusted by Holm's family wise error compensation (FWEC). Spike counts elicited by ATP, AMP, adenosine and their binary mixtures were analysed using a generalised linear model (LM) of log (x+10) transformed data and differences were identified using post-hoc-Tukey test with Holm's FWEC.
Log transformed spike amplitudes generated in response to ATP, adenosine and sucrose were compared using linear mixed effects models using the ‘lme’ function of the “nlme” R package, with spike amplitude as the dependent variable, treatment as the fixed factor and mosquito number within treatment as random effect. Residuals were normally distributed (Shapiro-Wilk test P>0.0563) and their variances homogeneous (Bartlett test P>0.9799); P-values were corrected using Holm's FWEC.
Dose-response models fitted to mosquito data were generated using the ‘drm’ command in the “drc” R package (version 2.5-12). Best fitting models (goodness of fit) and effects of dose of a compound were assessed using, respectively, ‘modelFit’ and ‘noEffect’ functions in the same R package. A 3-parameter logistic model (L3) was fitted to spike-counts recorded to increasing doses of adenosine, AMP, ATP and AMP-CPP. Spike numbers recorded in response to 200 pM ATP with increasing doses of PR antagonists added were analysed using a 4-parameter log-logistic model (LL.4) for A-317491 and spinorphin, using a 4-parameter Weibull model (W1.4) for PPADS, RB-2 and TMP, and using a 3-parameter log-logistic model (LL.3) for suramin. An L3 model was fitted to proportions of females feeding on increasing doses of ATP. Feeding rates on 20 μM ATP with increasing doses of a PR antagonist added were analysed using a 4-parameter log-logistic model (LL.4) with the median of the positive control (20 μM ATP) fixed as the upper asymptote. […]

[3] = TFS + 100 μM, N3, N4, silicone membrane
[4] = spike frequency as a function of dose

O=C(O)c1cc(C(=O)O)c(C(=O)N(Cc2cccc(Oc3ccccc3)c2)[C@H]2CCCc3ccccc32)cc1C(=O)O [A-317491, 5-[(3-phenoxyphenyl)methyl-[(1S)-1,2,3,4-tetrahydronaphthalen-1-yl]carbamoyl]benzene-1,2,4-tricarboxylic acid]
Fluid intake, Median (mg) (Ixodes ricinus; TFS + 1 μM): 1.5 mg/h | effect on feeding on solution containing ATP, in words (Ixodes ricinus; doses as in Table 9): inhibited feeding | Fluid intake, Median (mg) (Amblyomma hebraeum; TFS + 1 μM): 6.7 mg/h | weight gain, Median (mg) (Ornithodorus moubata; TFS + 1 μM, N3, N4, silicone membrane): 0.1 mg/25 min | weight gain, Median (mg) (Ornithodorus moubata; [3]): 0 mg/25 min | effect on feeding, compound in solution containing ATP, in words (Ornithodorus moubata): inhibited feeding | Kd ([1]; Jarvis et al., 2002): 0.9 nM

Nc1ncnc2c1ncn2[C@@H]1O[C@H](COP(=O)(O)OP(=O)(O)OP(=O)(O)O)[C@@H](O)[C@H]1O [ATP, Adenosine 5′-triphosphate]
spike frequency ([2]; 50 pM alone, mixture 50 pM of each agonist): 2.5±0.7 /2s | EC50 ([2]; Anopheles gambiae, spike frequency as a function of dose, read-out: ED50 (the source's name)): ~0.12 nM | spikes recorded at the asymptote ([2]; at 250 pM): approximately 30 spikes/2 s | Mean spike frequency per 2 s (±SEM) ([2]; each compound at 200 pM alone and in binary mixtures, T1 labellum sensilla): 33.04 per 2 s | detection threshold ([2]; labellum sensory cell): < 100 pM | ED95 [2, 4]: ~0.2 nM | dose at which the unsurmountable asymptote is reached [2, 4]: 250 pM | affinity [1]: < 1 nM

Cc1ccc(C(=O)Nc2ccc(S(=O)(=O)O)c3cc(S(=O)(=O)O)cc(S(=O)(=O)O)c23)cc1NC(=O)c1cccc(NC(=O)Nc2cccc(C(=O)Nc3cc(C(=O)Nc4ccc(S(=O)(=O)O)c5cc(S(=O)(=O)O)cc(S(=O)(=O)O)c45)ccc3C)c2)c1 [Suramin]
Fluid intake, Median (mg) (Ixodes ricinus; TFS + 500 μM): 1.9 mg/h | Fluid intake, Median (mg) (Amblyomma hebraeum; TFS + 500 μM): 4.5 mg/h | weight gain, Median (mg) (Ornithodorus moubata; TFS + 500 μM, N3, N4, silicone membrane): 0 mg/25 min

Cc1nc(C)c(C)nc1C [TMP, 2,3,5,6-tetramethylpyrazine]
weight gain, Median (mg) (Ornithodorus moubata; 8 μg/cm^2 on membrane over TFS, N3, N4): 0 mg/25 min | weight gain, Median (mg) (Ornithodorus moubata; [3]): 0.1 mg/25 min | effect on feeding, compound applied onto the feeding membrane, in words (Ornithodorus moubata; dose as in Table 9): significantly inhibited feeding | effect on feeding, compound in solution containing ATP, in words (Ornithodorus moubata): failed to inhibit feeding
